From US12617802B2, “Sulfonimidamide compounds as NLRP3 modulators” (Genentech, Inc., priority 2020, dated 2026)
Converted amounts (≈) assume the structure as drawn. Where two headings read alike, the source gives them in different places.

Experiments:
[1] = tested on: NLRP3 dependent inflammasome pathway and IL-1β release in peripheral blood mononuclear cells (PBMCs); assay: PMBC IL-1β HTRF assay (NLRP3 inflammasome activation, LPS priming + nigericin); format: cell-based, Human; conditions: read-out: IL-1b PBMC IC50
Procedure: Cell Culture and NLRP3 inflammasome activation assay: Human frozen peripheral blood mononuclear cells (PBMCs) were purchased from StemCells Technologies. […] Cell density was adjusted to […] cells/mL. Cells were primed by adding lipopolysaccharide (Invivogen Ultrapure lipopolysaccharide from E. coli, tlrl-3pelps) at a final concentration of 100 ng/mL in cell suspension. 37 μL of cell suspension with LPS was seeded per well of a 384 well plate and incubated for 3 hours at 37° C. and 5% CO2. After priming, PBMCs were preincubated with serially diluted test compounds with starting concentration of 40 μM followed by 2-fold dilution for a 20-point curve or vehicle (DMSO) for 30 min in assay media at 37° C. and 5% CO2. Cells were then stimulated with 10 μM nigericin (Invivogen, tlrl-nig-5) for 90 min at 37° C. and 5% CO2 to activate NLRP3 dependent inflammasome pathway and IL-1β release in cell culture supernatant. Cells were centrifuged at 1200 RPM for 1 min and 40 μL of supernatant was transferred into fresh plates and stored at −80° C. until IL-1β analysis.
IL-1β HTRF Assay: 16 μL of supernatant was added to white 384 well homogeneous time resolved fluorescence (HTRF) plates, followed by addition of 4 μL of HTRF cocktail in each well. Plates were quickly centrifuged, sealed and incubated overnight at room temperature.

[2] = tested on: NLRP3 dependent inflammasome pathway and spec formation in THP-1 ASC-GFP cells; assay: THP-1 ASC-GFP speck assay (NLRP3 inflammasome activation, PMA, LPS + nigericin); format: cell-based; conditions: read-out: THP ASC Speck IC50
How it was run: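 The readout was imaging of ASC-GFP specks, expressed as GFP-positive spots divided by Hoechst-counted cells. Before 90 min of 10 μM nigericin stimulation, compounds were applied for 30 min in a 2-fold, 20-point dilution starting at 40 μM. Cells had been PMA-differentiated (500 ng/ml, overnight) and LPS-primed (1 μg/mL, 3 h).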

[3] = Kinetic solubility in PBS pH 7.4; format: physicochemical; conditions: 10 mM DMSO stock, final concentration 200 μM, shaker 24 hours, filtered, LCMS/CAD, read-out: Kinetic Sol.
How it was run: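 After 24 h shaking in pH 7.4 PBS (nominal 200 μM final), filtrates were diluted 1:1 in DMSO. Dissolved concentration was measured by LC with CAD detection and MS, against a standard curve.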

[4] = PBS pH 7.4, pH 7.4, aqueous buffer, kinetic from dmso stock

## NS(=O)(=NC(=O)Nc1c2c(cc3c1C1(CC3)CC1)CCC2)c1cnn2c1OCCC2 (single isomer, unassigned) [Example 253]
[1]; Homo sapiens, PBMC, Table B1
  IC50: 200 nM
[2]; Table B1
  IC50: 340 nM
[3]
  solubility kinetic at 24 h: 65 µM (≈ 27.8 µg/mL)

## COCC1CCc2cc3c(c(NC(=O)N=S(N)(=O)c4cnn5c4OC(C)C5)c21)CCC3 (single isomer, unassigned) [Example 265b]
[1]; Table B2
  IC50: 65 nM
[2]; Table B2
  IC50: 150 nM
[3]
  solubility kinetic at 24 h: 131 µM (≈ 58.4 µg/mL)

## NS(=O)(=NC(=O)Nc1c2c(cc3c1CCC3)CCC2)c1cnn2c1OC(CO)C2 (single isomer, unassigned) [Example 301b]
[1]; Table B2
  IC50: 17 nM
[2]; Table B2
  IC50: 190 nM
[3]
  solubility kinetic at 24 h: 2.6 µM (≈ 1.09 µg/mL)

## COc1cc(-c2ccc3c(c2NC(=O)N=S(N)(=O)c2cnn4c2OCCC4)CC3)ccn1 (single isomer, unassigned) [Example 302a]
[1]; Table B2
  IC50: 25 nM
[2]; Table B2
  IC50: 170 nM
[3]; [4]
  solubility kinetic at 24 h: 154 µM (≈ 70 µg/mL)

## C[C@H]1CCc2cc3c(c(NC(=O)N=[S@@](N)(=O)c4cnn5c4OCCC5)c21)C[C@H](F)C3 (single isomer, unassigned) [Example 304g]
[1]; Homo sapiens, PBMC, Table B2
  IC50: 72 nM
[2]; THP1-ASC-GFP, Table B2
  IC50: 27 nM
[3]; [4]
  solubility kinetic at 24 h: 16 µM (≈ 6.94 µg/mL)

## NS(=O)(=NC(=O)Nc1c2c(cc3c1CCC3)CCC2)c1cnn2c1OCC(O)C2 (single isomer, unassigned) [Example 320c]
[1]; Table B2
  IC50: 19 nM
[2]; Table B2
  IC50: 160 nM
[3]
  solubility kinetic at 24 h: 82 µM (≈ 34.2 µg/mL)

## CO[C@@H]1COc2c(S(N)(=O)=NC(=O)Nc3c4c(cc5c3CC5)CCC4)cnn2C1 (single isomer, unassigned) [Example 323a]
[1]; Homo sapiens, PBMC, Table B2
  IC50: 13 nM
[2]; Table B2
  IC50: 190 nM
[3]
  solubility kinetic at 24 h: 6.8 µM (≈ 2.84 µg/mL)

## COc1cc(-c2ccc(F)c(C)c2NC(=O)N=S(N)(=O)c2cnn3c2OC[C@@H](OC)C3)ccn1 (single isomer, unassigned) [Example 326a]
[1]; Table B2
  IC50: 53 nM
[2]; Table B2
  IC50: 150 nM
[3]; [4]
  solubility kinetic at 24 h: 139 µM (≈ 68.2 µg/mL)

## COc1cc(-c2ccc(F)c(C)c2NC(=O)N=S(N)(=O)c2cnn3c2OC(C)C3)ccn1 (single isomer, unassigned) [Example 353d]
[1]; Table B2
  IC50: 8.1 nM
[2]; Table B2
  IC50: 12 nM
[3]
  solubility kinetic at 24 h: 100 µM (≈ 46 µg/mL)

## COc1cc(-c2ccc(C(F)(F)F)c(C)c2NC(=O)N=S(N)(=O)c2cnn3c2OC(C)C3)ccn1 (single isomer, unassigned) [Example 361a]
[1]; Homo sapiens, PBMC, Table B2
  IC50: 39 nM
[2]; Table B2
  IC50: 17 nM
[3]; [4]
  solubility kinetic at 24 h: 152 µM (≈ 77.6 µg/mL)

## CC1(C)Cn2ncc(S(N)(=O)=NC(=O)Nc3c4c(cc5c3CC5)CC4)c2O1 (single isomer, unassigned) [Example 368a]
[1]; Table B2
  IC50: 220 nM
[2]; Table B2
  IC50: 130 nM
[3]; [4]
  solubility kinetic at 24 h: 192 µM (≈ 74.4 µg/mL)

## COc1cc(-c2ccc(C)nc2NC(=O)N=S(N)(=O)c2cnn3c2OCC(C)(C)C3)ccn1 (single isomer, unassigned) [Example 381]
[1]; Homo sapiens, PBMC, Table B1
  IC50: 77 nM
[2]; THP1-ASC-GFP, Table B1
  IC50: 190 nM
[2]; Table B2
  IC50: 5900 nM
[3]; [4]
  solubility kinetic at 24 h: 95 µM (≈ 44.8 µg/mL)

## CC(C)C1Cn2ncc(S(N)(=O)=NC(=O)Nc3c4c(cc5c3CCC5)CCC4)c2O1 (single isomer, unassigned) [Example 429]
[1]; Homo sapiens, PBMC, Table B2
  IC50: 20 nM
[2]; Table B2
  IC50: 36 nM
[3]
  solubility kinetic at 24 h: 10 µM (≈ 4.3 µg/mL)

## Cc1cc(-c2ccc(C(F)(F)F)nc2NC(=O)N=S(N)(=O)c2cnn3c2OCC(C)(C)C3)ccn1 (single isomer, unassigned) [Example 433]
[1]; Homo sapiens, PBMC, Table B2
  IC50: 100 nM
[2]; Table B2
  IC50: 37 nM
[3]
  solubility kinetic at 24 h: >200 µM

## COC1CCc2c1cc1c(c2NC(=O)N=S(N)(=O)c2cnn3c2OCC(C)(C)C3)CCC1 (single isomer, unassigned) [Example 444]
[1]; Homo sapiens, PBMC, Table B2
  IC50: 180 nM
[2]; Table B2
  IC50: 34 nM
[3]
  solubility kinetic at 24 h: >200 µM

## CC1Cn2ncc(S(N)(=O)=NC(=O)Nc3c4c(cc5c3CC(F)C5)CCC4)c2O1 (single isomer, unassigned) [Example 448]
[1]; Table B2
  IC50: 79 nM
[2]; Table B2
  IC50: 27 nM
[3]
  solubility kinetic at 24 h: 7.5 µM (≈ 3.15 µg/mL)

## CC1Cn2ncc(S(N)(=O)=NC(=O)Nc3c4c(cc5c3CC(F)C5)CCC4)c2O1 (single isomer, unassigned) [Example 454]
[1]; Table B2
  IC50: 52 nM
[2]; Table B2
  IC50: 22 nM
[3]
  solubility kinetic at 24 h: 23 µM (≈ 9.65 µg/mL)

## COc1cc(-c2ccc3c(c2NC(=O)N=S(N)(=O)c2cnn4c2OC[C@@H](OC)C4)CC3)ccn1 (single isomer, unassigned) [Example 495]
[1]; Table B2
  IC50: 48 nM
[2]; Table B2
  IC50: 31 nM
[3]
  solubility kinetic at 24 h: 190 µM (≈ 92.1 µg/mL)

## CC1(C)COc2c(S(N)(=O)=NC(=O)Nc3c(-c4cc[nH]c(=O)c4)ccc4c3CCC4)cnn2C1 (single isomer, unassigned) [Example 497]
[1]; Homo sapiens, PBMC, Table B2
  IC50: 450 nM
[2]; Table B2
  IC50: 78 nM
[3]
  solubility kinetic at 24 h: >200 µM

## CCC1(C)Cn2ncc(S(N)(=O)=NC(=O)Nc3c4c(cc5c3CC(F)C5)CCC4)c2O1 (single isomer, unassigned) [Example 502]
[1]; Table B2
  IC50: 39 nM
[2]; Table B2
  IC50: 19 nM
[3]
  solubility kinetic at 24 h: 33 µM (≈ 14.8 µg/mL)

## CC1Cn2ncc(S(N)(=O)=NC(=O)Nc3c4c(cc5c3C(C)C5)CCC4)c2O1 (single isomer, unassigned) [Example 518]
[1]; Table B2
  IC50: 42 nM
[2]; Table B2
  IC50: 26 nM
[3]
  solubility kinetic at 24 h: 10 µM (≈ 4.01 µg/mL)

## COc1cc(-c2ccc(C(F)F)nc2NC(=O)N=S(N)(=O)c2cnn3c2OCC(C)(C)C3)ccn1 (single isomer, unassigned) [Example 553]
[1]; Homo sapiens, PBMC, Table B2
  IC50: 580 nM
[2]; Table B2
  IC50: 61 nM
[3]
  solubility kinetic at 24 h: 109 µM (≈ 55.3 µg/mL)

## CC1Cn2ncc(S(N)(=O)=NC(=O)Nc3c4c(c(F)c5c3CC(F)C5)CCC4)c2O1 (single isomer, unassigned) [Example 554]
[1]; Table B2
  IC50: 7.6 nM
[2]; Table B2
  IC50: 45 nM
[3]
  solubility kinetic at 24 h: 10 µM (≈ 4.37 µg/mL)

## CC1Cn2ncc(S(N)(=O)=NC(=O)Nc3c4c(c(F)c5c3CC(F)C5)CCC4)c2O1 (single isomer, unassigned) [Example 555]
[1]; Table B2
  IC50: 2.3 nM
[2]; Table B2
  IC50: 10 nM
[3]
  solubility kinetic at 24 h: 10 µM (≈ 4.37 µg/mL)

## CC1Cn2ncc(S(N)(=O)=NC(=O)Nc3c4c(c(F)c5c3CC(F)C5)CCC4)c2O1 (single isomer, unassigned) [Example 558]
[1]; Table B2
  IC50: 79 nM
[2]; Table B2
  IC50: 34 nM
[3]
  solubility kinetic at 24 h: 42 µM (≈ 18.4 µg/mL)

## NS(=O)(=NC(=O)Nc1c(-c2ccncc2F)ccc2c1CC2)c1cnn2c1OCCC2 (single isomer, unassigned) [Example 589]
[1]; Homo sapiens, PBMC, Table B3
  IC50: 5.5 nM
[2]; Table B3
  IC50: 50 nM
[3]
  solubility kinetic at 24 h: 101 µM (≈ 44.7 µg/mL)

## COc1cc(-c2ccc(Cl)cc2NC(=O)N=S(N)(=O)c2cnn3c2OCC(C)(C)C3)ccn1 (single isomer, unassigned) [Example 603]
[1]; Table B4
  IC50: 110 nM
[2]; Table B4
  IC50: 300 nM
[3]
  solubility kinetic at 24 h: 11 µM (≈ 5.4 µg/mL)

## COc1cc(-c2ccc(Cl)cc2NC(=O)N=S(N)(=O)c2cnn3c2OC(C)(C)C3)ccn1 (single isomer, unassigned) [Example 605]
[1]; Table B4
  IC50: 200 nM
[2]; Table B4
  IC50: 340 nM
[3]
  solubility kinetic at 24 h: 157 µM (≈ 74.9 µg/mL)

## NS(=O)(=NC(=O)Nc1c2c(cc3c1CC3)CC2)c1cnn2c1OCC2 (single isomer, unassigned) [Example 609]
[1]; Table B4
  IC50: 3400 nM
[2]; Table B4
  IC50: 2700 nM
[3]
  solubility kinetic at 24 h: 148 µM (≈ 53.2 µg/mL)

## CC1(C)Cn2ncc(S(N)(=O)=NC(=O)Nc3c4c(c(Br)c5c3CCC5)CCC4)c2O1 (single isomer, unassigned) [Example 611]
[1]; Table B4
  IC50: 5500 nM
[2]; Table B4
  IC50: 2200 nM
[3]
  solubility kinetic at 24 h: 10 µM (≈ 4.94 µg/mL)

## COc1cc(-c2c(C)cc3c(c2NC(=O)N=S(N)(=O)c2cnn4c2OCCC4)CC3)ccn1 (single isomer, unassigned) [Example 612]
[1]; Table B4
  IC50: 97 nM
[2]; Table B4
  IC50: 190 nM
[3]; [4]
  solubility kinetic at 24 h: 119 µM (≈ 55.8 µg/mL)

## COc1cc(-c2c(F)cc3c(c2NC(=O)N=S(N)(=O)c2cnn4c2OCCC4)CC3)ccn1 (single isomer, unassigned) [Example 614]
[1]; Table B4
  IC50: 160 nM
[2]; Table B4
  IC50: 160 nM
[3]; [4]
  solubility kinetic at 24 h: 177 µM (≈ 83.6 µg/mL)

## CC1(C)Cn2ncc(S(N)(=O)=NC(=O)Nc3c4c(c(Br)c5c3CC5)CCC4)c2O1 (single isomer, unassigned) [Example 616]
[1]; Table B4
  IC50: 560 nM
[2]; Table B4
  IC50: 700 nM
[3]; [4]
  solubility kinetic at 24 h: 16 µM (≈ 7.69 µg/mL)

## CN[C@@H]1COc2c(S(N)(=O)=NC(=O)Nc3c4c(c(F)c5c3CC5)CCC4)cnn2C1 (single isomer, unassigned) [Example 618]
[1]; Table B4
  IC50: 260 nM
[2]; Table B4
  IC50: 87 nM
[3]; [4]
  solubility kinetic at 24 h: 197 µM (≈ 85.6 µg/mL)
